Measurements published in ChEMBL document CHEMBL4804284.

How the values were obtained:
Set-up in all cases: scale not given: the % may be the effect or the level left
[1] = molecular target: Cyclin-dependent kinase-like 1 (Homo sapiens) (UniProt Q00532); assay: Inhibition of DNA-tagged human CDKL1 assessed as percent of control at 50000 nM by qPCR analysis relative to control
[2] = molecular target: Serine/threonine-protein kinase 38 (Homo sapiens) (UniProt Q15208); assay: Inhibition of DNA-tagged human NDR1 assessed as percent of control at 50000 nM by qPCR analysis relative to control
[3] = molecular target: 5'-AMP-activated protein kinase catalytic subunit alpha-1 (Homo sapiens) (UniProt Q13131); assay: Inhibition of DNA-tagged human AMPK-alpha1 assessed as percent of control at 50000 nM by qPCR analysis relative to control
[4] = system: eIF-2-alpha kinase GCN2 (Homo sapiens), Q9P2K8 [S808G]; assay: Inhibition of DNA-tagged human GCN2 S808G mutant kinase domain 2 assessed as percent of control at 50000 nM by qPCR analysis relative to control
[5] = molecular target: Serine/threonine-protein kinase Chk1 (Homo sapiens) (UniProt O14757); assay: Inhibition of DNA-tagged human CHEK1 assessed as percent of control at 50000 nM by qPCR analysis relative to control
[6] = molecular target: Non-receptor tyrosine-protein kinase TNK1 (Homo sapiens) (UniProt Q13470); assay: Inhibition of DNA-tagged human TNK1 assessed as percent of control at 50000 nM by qPCR analysis relative to control
[7] = molecular target: Tyrosine-protein kinase Tec (Homo sapiens) (UniProt P42680); assay: Inhibition of DNA-tagged human TEC assessed as percent of control at 50000 nM by qPCR analysis relative to control
[8] = molecular target: Mitogen-activated protein kinase kinase kinase 12 (Homo sapiens) (UniProt Q12852); assay: Inhibition of DNA-tagged human DLK assessed as percent of control at 50000 nM by qPCR analysis relative to control
[9] = molecular target: Dual specificity tyrosine-phosphorylation-regulated kinase 1B (Homo sapiens) (UniProt Q9Y463); assay: Inhibition of DNA-tagged human DYRK1B assessed as percent of control at 50000 nM by qPCR analysis relative to control
[10] = molecular target: Dual specificity testis-specific protein kinase 1 (Homo sapiens) (UniProt Q15569); assay: Inhibition of DNA-tagged human TESK1 assessed as percent of control at 50000 nM by qPCR analysis relative to control
[11] = molecular target: Dual specificity mitogen-activated protein kinase kinase 1 (Homo sapiens) (UniProt Q02750); assay: Inhibition of DNA-tagged human MEK1 assessed as percent of control at 50000 nM by qPCR analysis relative to control
[12] = molecular target: Serine/threonine-protein kinase D2 (Homo sapiens) (UniProt Q9BZL6); assay: Inhibition of DNA-tagged human PRKD2 assessed as percent of control at 50000 nM by qPCR analysis relative to control
[13] = molecular target: RAF proto-oncogene serine/threonine-protein kinase (Homo sapiens) (UniProt P04049); assay: Inhibition of DNA-tagged human RAF1 assessed as percent of control at 50000 nM by qPCR analysis relative to control
[14] = molecular target: Leucine-rich repeat serine/threonine-protein kinase 2 (Homo sapiens) (UniProt Q5S007); assay: Inhibition of DNA-tagged human LRRK2 assessed as percent of control at 50000 nM by qPCR analysis relative to control
[15] = molecular target: Dual specificity protein kinase CLK1 (Homo sapiens) (UniProt P49759); assay: Inhibition of DNA-tagged human CLK1 assessed as percent of control at 50000 nM by qPCR analysis relative to control
[16] = molecular target: Eukaryotic translation initiation factor 2-alpha kinase 1 (Homo sapiens) (UniProt Q9BQI3); assay: Inhibition of DNA-tagged human EIF2AK1 assessed as percent of control at 50000 nM by qPCR analysis relative to control
[17] = molecular target: Megakaryocyte-associated tyrosine-protein kinase (Homo sapiens) (UniProt P42679); assay: Inhibition of DNA-tagged human CTK assessed as percent of control at 50000 nM by qPCR analysis relative to control
[18] = molecular target: Interleukin-1 receptor-associated kinase 1 (Homo sapiens) (UniProt P51617); assay: Inhibition of DNA-tagged human IRAK1 assessed as percent of control at 50000 nM by qPCR analysis relative to control
[19] = molecular target: Phosphatidylinositol 4-phosphate 5-kinase type-1 gamma (Homo sapiens) (UniProt O60331); assay: Inhibition of DNA-tagged human PIP5K1C assessed as percent of control at 50000 nM by qPCR analysis relative to control
[20] = molecular target: Serine/threonine-protein kinase Nek2 (Homo sapiens) (UniProt P51955); assay: Inhibition of DNA-tagged human NEK2 assessed as percent of control at 50000 nM by qPCR analysis relative to control
[21] = molecular target: CDK4/Cyclin D3 (Homo sapiens) (UniProt P11802+P30281); assay: Inhibition of DNA-tagged human CDK4/cyclin D3 assessed as percent of control at 50000 nM by qPCR analysis relative to control; format: protein-complex assay
[22] = molecular target: Serine/threonine-protein kinase MAK (Homo sapiens) (UniProt P20794); assay: Inhibition of DNA-tagged human MAK assessed as percent of control at 50000 nM by qPCR analysis relative to control
[23] = molecular target: Cyclin-dependent kinase-like 3 (Homo sapiens) (UniProt Q8IVW4); assay: Inhibition of DNA-tagged human CDKL3 assessed as percent of control at 50000 nM by qPCR analysis relative to control
[24] = molecular target: Mitogen-activated protein kinase kinase kinase 2 (Homo sapiens) (UniProt Q9Y2U5); assay: Inhibition of DNA-tagged human MAP3K2 assessed as percent of control at 50000 nM by qPCR analysis relative to control
[25] = molecular target: Activin receptor type-1 (Homo sapiens) (UniProt Q04771); assay: Inhibition of DNA-tagged human ACVR1 assessed as percent of control at 50000 nM by qPCR analysis relative to control
[26] = molecular target: Insulin receptor (Homo sapiens) (UniProt P06213); assay: Inhibition of DNA-tagged human INSR assessed as percent of control at 50000 nM by qPCR analysis relative to control
[27] = molecular target: Serine/threonine-protein kinase NLK (Homo sapiens) (UniProt Q9UBE8); assay: Inhibition of DNA-tagged human NLK assessed as percent of control at 50000 nM by qPCR analysis relative to control
[28] = molecular target: Ephrin type-A receptor 6 (Homo sapiens) (UniProt Q9UF33); assay: Inhibition of DNA-tagged human EPHA6 assessed as percent of control at 50000 nM by qPCR analysis relative to control
[29] = molecular target: Proto-oncogene tyrosine-protein kinase Src (Homo sapiens) (UniProt P12931); assay: Inhibition of DNA-tagged human SRC assessed as percent of control at 50000 nM by qPCR analysis relative to control
[30] = molecular target: Fibroblast growth factor receptor 4 (Homo sapiens) (UniProt P22455); assay: Inhibition of DNA-tagged human FGFR4 assessed as percent of control at 50000 nM by qPCR analysis relative to control

Chain of Insulin receptor (Homo sapiens) (P06213 28-758 limits assumed): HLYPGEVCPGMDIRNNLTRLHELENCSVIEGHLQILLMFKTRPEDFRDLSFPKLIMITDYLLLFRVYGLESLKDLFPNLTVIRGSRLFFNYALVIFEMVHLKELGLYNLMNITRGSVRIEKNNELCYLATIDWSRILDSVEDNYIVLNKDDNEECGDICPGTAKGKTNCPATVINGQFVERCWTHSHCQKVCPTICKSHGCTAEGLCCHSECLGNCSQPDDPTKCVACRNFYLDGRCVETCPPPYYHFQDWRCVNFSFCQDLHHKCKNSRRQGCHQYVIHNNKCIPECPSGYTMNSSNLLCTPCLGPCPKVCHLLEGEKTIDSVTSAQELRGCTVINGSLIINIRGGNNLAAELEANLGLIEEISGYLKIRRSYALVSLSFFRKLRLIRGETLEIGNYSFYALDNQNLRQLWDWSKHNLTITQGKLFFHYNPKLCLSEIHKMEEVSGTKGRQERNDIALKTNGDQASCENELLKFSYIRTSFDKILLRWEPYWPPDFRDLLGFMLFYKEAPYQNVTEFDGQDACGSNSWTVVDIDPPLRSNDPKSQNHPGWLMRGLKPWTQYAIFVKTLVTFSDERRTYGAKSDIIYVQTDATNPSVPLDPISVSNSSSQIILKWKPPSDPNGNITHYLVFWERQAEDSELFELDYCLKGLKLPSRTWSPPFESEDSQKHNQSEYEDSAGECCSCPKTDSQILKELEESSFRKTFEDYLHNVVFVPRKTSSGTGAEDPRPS
Chain of Insulin receptor (Homo sapiens) (P06213 763-1382 limits assumed): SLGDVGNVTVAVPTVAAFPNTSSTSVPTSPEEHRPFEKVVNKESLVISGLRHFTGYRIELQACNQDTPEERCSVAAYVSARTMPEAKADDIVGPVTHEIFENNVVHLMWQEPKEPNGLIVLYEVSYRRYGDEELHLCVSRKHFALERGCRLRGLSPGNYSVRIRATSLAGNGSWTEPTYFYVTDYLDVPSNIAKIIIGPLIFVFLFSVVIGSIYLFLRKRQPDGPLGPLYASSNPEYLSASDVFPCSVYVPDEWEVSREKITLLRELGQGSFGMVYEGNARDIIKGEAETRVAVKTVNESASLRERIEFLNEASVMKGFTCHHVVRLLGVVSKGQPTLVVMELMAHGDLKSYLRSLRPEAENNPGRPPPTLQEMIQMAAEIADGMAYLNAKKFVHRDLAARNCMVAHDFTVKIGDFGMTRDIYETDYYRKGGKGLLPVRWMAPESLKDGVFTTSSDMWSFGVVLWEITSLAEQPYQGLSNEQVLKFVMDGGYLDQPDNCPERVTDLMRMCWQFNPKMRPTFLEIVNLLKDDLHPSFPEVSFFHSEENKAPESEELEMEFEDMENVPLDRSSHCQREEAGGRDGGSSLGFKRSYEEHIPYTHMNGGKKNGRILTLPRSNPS
Chain of RAF proto-oncogene serine/threonine-protein kinase (Homo sapiens) (P04049 whole entry): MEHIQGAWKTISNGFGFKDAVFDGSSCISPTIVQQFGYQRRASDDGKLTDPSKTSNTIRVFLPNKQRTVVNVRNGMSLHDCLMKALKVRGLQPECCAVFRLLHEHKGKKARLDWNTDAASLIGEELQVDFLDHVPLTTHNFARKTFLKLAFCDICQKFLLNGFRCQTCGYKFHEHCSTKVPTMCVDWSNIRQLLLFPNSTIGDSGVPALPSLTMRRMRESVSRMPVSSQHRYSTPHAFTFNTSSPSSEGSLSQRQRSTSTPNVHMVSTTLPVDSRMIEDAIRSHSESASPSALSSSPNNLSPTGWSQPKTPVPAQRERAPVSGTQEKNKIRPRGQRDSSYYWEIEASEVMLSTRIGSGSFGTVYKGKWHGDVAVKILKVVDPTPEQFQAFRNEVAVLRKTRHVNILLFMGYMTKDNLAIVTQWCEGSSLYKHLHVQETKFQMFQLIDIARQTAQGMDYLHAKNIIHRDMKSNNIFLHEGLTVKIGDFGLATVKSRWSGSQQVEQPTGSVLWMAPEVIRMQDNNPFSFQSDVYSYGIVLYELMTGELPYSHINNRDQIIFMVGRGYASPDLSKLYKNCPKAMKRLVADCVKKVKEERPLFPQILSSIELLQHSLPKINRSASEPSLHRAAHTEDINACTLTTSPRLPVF
Chain of Activin receptor type-1 (Homo sapiens) (Q04771 whole entry): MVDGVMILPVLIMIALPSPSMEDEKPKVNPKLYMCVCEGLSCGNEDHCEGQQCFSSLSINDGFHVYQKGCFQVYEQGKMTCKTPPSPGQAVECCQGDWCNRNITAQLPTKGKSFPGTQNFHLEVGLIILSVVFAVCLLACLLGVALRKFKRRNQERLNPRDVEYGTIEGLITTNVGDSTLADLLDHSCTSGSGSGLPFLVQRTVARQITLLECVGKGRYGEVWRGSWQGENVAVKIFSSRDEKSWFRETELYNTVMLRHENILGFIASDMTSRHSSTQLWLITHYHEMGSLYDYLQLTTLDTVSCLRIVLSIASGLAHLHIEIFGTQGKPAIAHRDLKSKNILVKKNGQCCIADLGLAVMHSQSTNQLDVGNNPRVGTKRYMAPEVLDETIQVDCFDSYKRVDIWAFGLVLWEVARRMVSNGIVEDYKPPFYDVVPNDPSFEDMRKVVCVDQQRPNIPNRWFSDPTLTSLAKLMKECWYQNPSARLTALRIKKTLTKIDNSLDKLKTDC
Chain of Serine/threonine-protein kinase MAK (Homo sapiens) (P20794 whole entry): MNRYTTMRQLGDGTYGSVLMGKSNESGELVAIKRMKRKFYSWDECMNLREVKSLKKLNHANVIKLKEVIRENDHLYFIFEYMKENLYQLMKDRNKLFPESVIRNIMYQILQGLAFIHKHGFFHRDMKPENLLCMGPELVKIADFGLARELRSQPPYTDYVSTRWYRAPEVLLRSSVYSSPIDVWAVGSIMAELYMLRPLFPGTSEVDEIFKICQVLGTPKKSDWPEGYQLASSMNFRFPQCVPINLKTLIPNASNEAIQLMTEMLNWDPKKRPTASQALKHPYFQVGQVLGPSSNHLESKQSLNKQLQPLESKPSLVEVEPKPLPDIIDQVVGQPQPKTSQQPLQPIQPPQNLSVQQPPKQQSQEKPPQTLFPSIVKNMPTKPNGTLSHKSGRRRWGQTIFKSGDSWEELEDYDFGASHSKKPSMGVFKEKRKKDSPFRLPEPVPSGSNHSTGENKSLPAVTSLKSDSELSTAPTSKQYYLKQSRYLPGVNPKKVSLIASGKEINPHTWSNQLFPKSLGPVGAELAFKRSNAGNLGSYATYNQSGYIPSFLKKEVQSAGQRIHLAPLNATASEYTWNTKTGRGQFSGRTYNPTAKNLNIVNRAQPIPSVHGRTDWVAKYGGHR
Chain of Megakaryocyte-associated tyrosine-protein kinase (Homo sapiens) (P42679 whole entry): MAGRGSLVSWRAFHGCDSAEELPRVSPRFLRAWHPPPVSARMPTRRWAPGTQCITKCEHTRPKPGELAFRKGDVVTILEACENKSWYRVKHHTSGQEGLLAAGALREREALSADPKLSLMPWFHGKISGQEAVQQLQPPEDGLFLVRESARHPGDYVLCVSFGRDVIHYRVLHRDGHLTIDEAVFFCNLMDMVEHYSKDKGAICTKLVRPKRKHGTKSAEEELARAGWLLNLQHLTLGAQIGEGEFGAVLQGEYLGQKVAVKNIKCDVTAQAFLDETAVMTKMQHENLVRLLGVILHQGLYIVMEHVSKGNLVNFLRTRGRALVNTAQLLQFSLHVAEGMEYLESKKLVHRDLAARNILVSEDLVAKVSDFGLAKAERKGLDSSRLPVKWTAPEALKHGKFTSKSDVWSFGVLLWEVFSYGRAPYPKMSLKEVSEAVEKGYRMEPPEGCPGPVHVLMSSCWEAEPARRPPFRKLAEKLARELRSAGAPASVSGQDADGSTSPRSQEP
Chain of Dual specificity protein kinase CLK1 (Homo sapiens) (P49759 whole entry, looked up): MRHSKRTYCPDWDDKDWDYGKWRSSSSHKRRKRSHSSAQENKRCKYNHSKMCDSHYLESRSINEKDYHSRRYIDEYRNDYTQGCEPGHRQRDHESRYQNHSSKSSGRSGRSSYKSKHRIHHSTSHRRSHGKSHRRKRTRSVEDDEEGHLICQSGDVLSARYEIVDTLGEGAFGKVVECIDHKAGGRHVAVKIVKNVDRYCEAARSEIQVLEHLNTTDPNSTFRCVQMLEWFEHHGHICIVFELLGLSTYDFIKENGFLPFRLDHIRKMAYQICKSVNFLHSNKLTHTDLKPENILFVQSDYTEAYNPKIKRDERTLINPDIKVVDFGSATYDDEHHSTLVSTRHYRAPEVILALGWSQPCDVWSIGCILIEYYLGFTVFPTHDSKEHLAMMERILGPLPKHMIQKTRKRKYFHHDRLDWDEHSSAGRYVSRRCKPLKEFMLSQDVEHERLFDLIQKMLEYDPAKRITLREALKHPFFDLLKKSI
Chain of Cyclin-dependent kinase-like 1 (Homo sapiens) (Q00532 whole entry): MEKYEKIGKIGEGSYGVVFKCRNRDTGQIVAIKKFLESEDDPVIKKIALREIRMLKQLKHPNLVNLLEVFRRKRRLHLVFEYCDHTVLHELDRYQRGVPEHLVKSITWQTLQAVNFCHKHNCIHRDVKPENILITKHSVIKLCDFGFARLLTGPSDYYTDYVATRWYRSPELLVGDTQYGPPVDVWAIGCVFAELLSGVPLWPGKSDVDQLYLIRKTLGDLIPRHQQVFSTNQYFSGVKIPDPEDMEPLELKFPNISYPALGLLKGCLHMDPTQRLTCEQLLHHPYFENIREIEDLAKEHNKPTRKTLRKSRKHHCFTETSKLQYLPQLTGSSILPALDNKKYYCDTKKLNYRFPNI
Chain of Serine/threonine-protein kinase NLK (Homo sapiens) (Q9UBE8 whole entry): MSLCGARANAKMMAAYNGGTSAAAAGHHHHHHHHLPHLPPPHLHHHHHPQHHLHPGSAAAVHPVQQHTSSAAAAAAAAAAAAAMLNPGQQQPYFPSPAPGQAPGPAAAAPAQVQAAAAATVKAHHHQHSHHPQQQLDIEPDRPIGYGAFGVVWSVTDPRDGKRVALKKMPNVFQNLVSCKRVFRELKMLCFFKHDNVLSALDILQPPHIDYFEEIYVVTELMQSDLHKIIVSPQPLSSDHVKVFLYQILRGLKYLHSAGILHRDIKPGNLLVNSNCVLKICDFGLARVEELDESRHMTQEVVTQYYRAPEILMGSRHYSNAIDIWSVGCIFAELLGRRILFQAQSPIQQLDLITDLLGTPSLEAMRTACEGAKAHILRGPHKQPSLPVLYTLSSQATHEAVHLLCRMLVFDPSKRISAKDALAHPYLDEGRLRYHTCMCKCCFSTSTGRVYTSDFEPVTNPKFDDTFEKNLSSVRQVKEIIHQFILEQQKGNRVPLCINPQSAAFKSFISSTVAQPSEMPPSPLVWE

**Q.** What does the source list for `CN1C(=O)/C(=C2/C(=O)Nc3ccccc32)c2ccccc21`?
**A.** Activity [1]: 79%; Activity [2]: 87%; Activity [3]: 100%; Activity [4]: 88%; Activity [5]: 100%; Activity [6]: 98%; Activity [7]: 100%; Activity [8]: 100%; Activity [9]: 92%; Activity [10]: 100%; Activity [11]: 81%; Activity [12]: 87%; Activity [13]: 100%; Activity [14]: 96%; Activity [15]: 100%; Activity [16]: 64%; Activity [17]: 56%; Activity [18]: 64%; Activity [19]: 81%; Activity [20]: 100%; Activity [21]: 100%; Activity [22]: 71%; Activity [23]: 100%; Activity [24]: 99%; Activity [25]: 99%; Activity [26]: 91%; Activity [27]: 100%; Activity [28]: 95%; Activity [29]: 100%; Activity [30]: 100%
